Data taken from US20260226071A1, “2, 4-DIANILINOPYRIMIDINE-BASED AURORA-A KINASE SELECTIVE DEGRADATION INDUCING COMPOUNDS” (UPPTHERA, INC., priority 2023, published 2026).

Molecular target: T1, Aurora kinase A (AURKA) (Homo sapiens, UniProt O14965)
T1 construct: endogenous in cells; host or cells: HeLa LgBit (AURKA-HiBit KI), CRISPR/Cas9 knock-in at the endogenous AURKA locus
T1 sequence (O14965 1-403): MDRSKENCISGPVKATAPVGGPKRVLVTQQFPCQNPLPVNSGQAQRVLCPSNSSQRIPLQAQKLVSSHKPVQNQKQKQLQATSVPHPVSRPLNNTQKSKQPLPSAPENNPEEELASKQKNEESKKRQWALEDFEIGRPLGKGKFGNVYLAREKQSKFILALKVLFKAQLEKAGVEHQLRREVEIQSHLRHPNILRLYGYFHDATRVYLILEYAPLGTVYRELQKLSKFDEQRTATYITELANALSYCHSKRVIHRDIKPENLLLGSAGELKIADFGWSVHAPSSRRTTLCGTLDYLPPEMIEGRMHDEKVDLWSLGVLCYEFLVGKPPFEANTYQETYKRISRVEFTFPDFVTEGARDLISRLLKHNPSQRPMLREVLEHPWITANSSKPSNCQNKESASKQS
Test: Luciferase assay for AURKA in HeLa LgBit (AURKA-HiBit KI) cell line
Format: cell-based
Settings: HeLa LgBit (AURKA-HiBit KI) cells, measured after 12 hours
Text: HeLa cell lines that stably express LgBit were constructed via LgBit vector transfection. Then, donor DNA and guide RNA for insertion of HiBit amino acid sequence at C-terminus of inherent Aurora kinase A (AURKA) genes were designed and constructed. Thereafter, they were transfected into the cell lines with CRISPR/Cas9 expression vector system. HiBit gene knock-in single cells were selected, passaged and used for the experiments.
For cell culture, DMEM (Gibco, Cat. No. 11995-065; Lot. No. 2562497), FBS (Gibco, Cat. No. 16000-044; Lot. No. 2511328P), Penicillin/Streptomycin (PS) (Gibco, Cat. No. 15140-122; Lot. No. 2585636), 90 mm^2 cell culture dish (SPL, Cat. No. 20100), 96-well white plate, PBS pH 7.4 (Gibco, […]), TrypLE™ Express (Gibco, Cat. No. 12605-010; Lot. No. 2522525), counting chamber (hematocytometer) (Hirschmann, Cat. No. 8100204; Lot. No. 8021087) and 0.4% Trypan Blue solution (DYNEBIO, Cat. No. CBT3710; Lot. No. 20231017) were used. Cells were cultured in DMEM supplemented with 10% FBS and 1% PS and incubated in CO2 incubator (Thermo, Cat. No. 4111) at 37° C., 5% CO2 condition.
HeLa LgBit (AURKA-HiBit KI) cell lines were cultured in 90 mm^2 cell culture dish, and 3×10^4 cells in […] of total medium volume were seeded and incubated for 18 hours in CO2 incubator. Then, Eudurazine (Promega, Cat. No. N247B; Lot. No. 495218) was added to each well to make up 1% of the total volume, followed by further incubation for 2 hours in CO2 incubator.
The present compounds were fully dissolved in DMSO (Sigma-Aldrich Cat. No. D2438, Lot. No. RNBL7287) and 10 nM or 100 nM of total concentration were used in the experiment. After adding the compounds in each well of 96-well white plate, the plate was placed in the plate reader (BMG Labtech, CLARIOstar Plus) for real-time analysis. The wavelength for analysis was set to […], and the luminescence value was measured after 12 hours. The luminescence value was analyzed through an Excel program.

Compound | luminescence value (Level) (10 nM compound) | luminescence value (Level) (100 nM compound)
O=C1CCC(Nc2ccc(N3CC4CN(CC5CN(C(=O)c6ccc(Nc7ncc(F)c(Nc8ccc(C(=O)Nc9ccccc9Cl)cc8)n7)cc6)C5)CC4C3)cc2)C(=O)N1 (centres unmarked) [Compound 34, N-(2-chlorophenyl)-4-((2-((4-(3-((5-(4-((2,6-dioxopiperidin-3-yl)amino)phenyl)hexahydropyrrolo[3,4-c]pyrrol-2(1H)-yl)methyl)azetidine-1-carbonyl)phenyl)amino)-5-fluoropyrimidin-4-yl)amino)benzamide] | B (B is 0.3 to 0.5) | A (A is <0.2)
O=C1CCC(Nc2ccc(N3CCN(C[C@@H]4[C@H]5CN(C(=O)c6ccc(Nc7ncc(F)c(Nc8ccc(C(=O)Nc9ccccc9Cl)cc8)n7)cc6)C[C@@H]45)CC3)cc2)C(=O)N1 (stereo partly drawn) [Compound 37, N-(2-chlorophenyl)-4-((2-((4-((1R,5S,6s)-6-((4-(4-((2,6-dioxopiperidin-3-yl)amino)phenyl)piperazin-1-yl)methyl)-3-azabicyclo[3.1.0]hexane-3-carbonyl)phenyl)amino)-5-fluoropyrimidin-4-yl)amino)benzamide] | B (B is 0.3 to 0.5) | B (B is 0.2 to 0.4)
O=C1CCC(Nc2ccc(N3CCCN(C[C@H]4CC[C@H](NC(=O)c5ccc(Nc6ncc(F)c(Nc7ccc(C(=O)Nc8ccccc8Cl)cc7)n6)cc5)CC4)CC3)cc2)C(=O)N1 (some centres unmarked) [Compound 39, N-(2-chlorophenyl)-4-((2-((4-(((1r,4r)-4-((4-(4-((2,6-dioxopiperidin-3-yl)amino)phenyl)-1,4-diazepan-1-yl)methyl)cyclohexyl)carbamoyl)phenyl)amino)-5-fluoropyrimidin-4-yl)amino)benzamide] | B (B is 0.3 to 0.5) | A (A is <0.2)
O=C1CCC(Nc2ccc(N3CCC(CN4C[C@@H]5[C@H](C4)[C@H]5NC(=O)c4ccc(Nc5ncc(F)c(Nc6ccc(C(=O)Nc7ccccc7Cl)cc6)n5)cc4)CC3)cc2)C(=O)N1 (stereo partly drawn) [Compound 40, N-(2-chlorophenyl)-4-((2-((4-(((1R,5S,6s)-3-((1-(4-((2,6-dioxopiperidin-3-yl)amino)phenyl)piperidin-4-yl)methyl)-3-azabicyclo[3.1.0]hexan-6-yl)carbamoyl)phenyl)amino)-5-fluoropyrimidin-4-yl)amino)benzamide] | B (B is 0.3 to 0.5) | A (A is <0.2)
O=C1CCC(Nc2ccc(N3CCC(CN4C[C@H]5C[C@H](NC(=O)c6ccc(Nc7ncc(F)c(Nc8ccc(C(=O)Nc9ccccc9Cl)cc8)n7)cc6)C[C@H]5C4)CC3)cc2)C(=O)N1 (stereo partly drawn) [Compound 41, N-(2-chlorophenyl)-4-((2-((4-(((3aR,5s,6aS)-2-((1-(4-((2,6-dioxopiperidin-3-yl)amino)phenyl)piperidin-4-yl)methyl)octahydrocyclopenta[c]pyrrol-5-yl)carbamoyl)phenyl)amino)-5-fluoropyrimidin-4-yl)amino)benzamide] | B (B is 0.3 to 0.5) | B (B is 0.2 to 0.4)
O=C1CCC(Nc2ccc(N3CC4(CN(CC5CCN(C(=O)c6ccc(Nc7ncc(F)c(Nc8ccc(C(=O)Nc9ccccc9Cl)cc8)n7)cc6)CC5)C4)C3)cc2)C(=O)N1 (centres unmarked) [Compound 42, N-(2-chlorophenyl)-4-((2-((4-(4-((6-(4-((2,6-dioxopiperidin-3-yl)amino)phenyl)-2,6-diazaspiro[3.3]heptan-2-yl)methyl)piperidine-1-carbonyl)phenyl)amino)-5-fluoropyrimidin-4-yl)amino)benzamide] | B (B is 0.3 to 0.5) | A (A is <0.2)
O=C1CCC(NC(=O)c2ccc(N3CCC(CN4CCN(C(=O)Cc5ccc(Nc6ncc(F)c(Nc7ccc(C(=O)Nc8ccccc8Cl)cc7)n6)cc5)CC4)CC3)cc2)C(=O)N1 (centres unmarked) [Compound 46, N-(2-chlorophenyl)-4-((2-((4-(2-(4-((1-(4-((2,6-dioxopiperidin-3-yl)carbamoyl)phenyl)piperidin-4-yl)methyl)piperazin-1-yl)-2-oxoethyl)phenyl)amino)-5-fluoropyrimidin-4-yl)amino)benzamide] | C (C is 0.5 to 0.7) | B (B is 0.2 to 0.4)
O=C1CCC(NC(=O)c2cccc(N3CCC(CN4CCN(C(=O)Cc5ccc(Nc6ncc(F)c(Nc7ccc(C(=O)Nc8ccccc8Cl)cc7)n6)cc5)CC4)CC3)c2)C(=O)N1 (centres unmarked) [Compound 47, 3-(4-((4-(2-(4-((4-((4-((2-chlorophenyl)carbamoyl)phenyl)amino)-5-fluoropyrimidin-2-yl)amino)phenyl)acetyl)piperazin-1-yl)methyl)piperidin-1-yl)-N-(2,6-dioxopiperidin-3-yl)benzamide] | D (D is 0.7 to 0.8) | B (B is 0.2 to 0.4)
O=C1CCN(c2ccc(N3CCN(CCC4CCN(NC(=O)c5ccc(Nc6ncc(F)c(Nc7ccc(C(=O)Nc8ccccc8Cl)cc7)n6)cc5)CC4)CC3)cc2)C(=O)N1 [Compound 54, N-(2-chlorophenyl)-4-[[2-[4-[[4-[2-[4-[4-(2,4-dioxohexahydropyrimidin-1-yl)phenyl]piperazin-1-yl]ethyl]-1-piperidyl]carbamoyl]anilino]-5-fluoro-pyrimidin-4-yl]amino]benzamide] | B (B is 0.3 to 0.5) | B (B is 0.2 to 0.4)
Cc1cc(Nc2nc(Nc3ccc(C(=O)NN4CCC(CCN5CCN(c6ccc(C7CCC(=O)NC7=O)cc6)CC5)CC4)cc3)ncc2F)n[nH]1 (centres unmarked) [Compound 59, N-(4-(2-(4-(4-(2,6-dioxopiperidin-3-yl)phenyl)piperazin-1-yl)ethyl)piperidin-1-yl)-4-((5-fluoro-4-((5-methyl-1H-pyrazol-3-yl)amino)pyrimidin-2-yl)amino)benzamide] | C (C is 0.5 to 0.7) | A (A is <0.2)
O=C1CCC(c2ccc(N3CCC4(CC3)CC(C3CCN(NC(=O)c5ccc(Nc6ncc(F)c(Nc7ccc(C(=O)Nc8ccccc8Cl)cc7)n6)cc5)CC3)C4)cc2)C(=O)N1 (centres unmarked) [Compound 60, N-(2-chlorophenyl)-4-((2-((4-((4-(7-(4-(2,6-dioxopiperidin-3-yl)phenyl)-7-azaspiro[3.5]nonan-2-yl)piperidin-1-yl)carbamoyl)phenyl)amino)-5-fluoropyrimidin-4-yl)amino)benzamide] | D (D is 0.7 to 0.8) | B (B is 0.2 to 0.4)
O=C1CCC(c2ccc(N3CCN(CCC4CCN(NC(=O)c5ccc(Nc6ncc(F)c(Nc7cc(C8CC8)[nH]n7)n6)cc5)CC4)CC3)cc2)C(=O)N1 (centres unmarked) [Compound 61, 4-((4-((5-cyclopropyl-1H-pyrazol-3-yl)amino)-5-fluoropyrimidin-2-yl)amino)-N-(4-(2-(4-(4-(2,6-dioxopiperidin-3-yl)phenyl)piperazin-1-yl)ethyl)piperidin-1-yl)benzamide] | C (C is 0.5 to 0.7) | A (A is <0.2)
O=C1CCC(c2ccc(N3CCC(CN4CCC(CNC(=O)c5ccc(Nc6ncc(F)c(Nc7ccc(C(=O)Nc8ccccc8Cl)cc7)n6)cc5)CC4)CC3)cc2)C(=O)N1 (centres unmarked) [Compound 62, N-(2-chlorophenyl)-4-((2-((4-(((1-((1-(4-(2,6-dioxopiperidin-3-yl)phenyl)piperidin-4-yl)methyl)piperidin-4-yl)methyl)carbamoyl)phenyl)amino)-5-fluoropyrimidin-4-yl)amino)benzamide] | B (B is 0.3 to 0.5) | A (A is <0.2)
